# US20240247029A1, “INTERLEUKIN-1 RECEPTOR MODULATORS AND USES THEREOF” (VALORISATION HSJ, LIMITED PARTNERSHIP, priority 2020, published 2024)
# Tests used:
# [1] = system: IL-1β-induced NF-κB signaling in HEK-Blue IL-33/IL-1β cells; assay: NF-κB QUANTI-Blue assay; format: cell-based; conditions: peptide 10^−6 M, 30 min pretreatment, IL-1β 100 ng/ml
# Experimental: FIG. 3 is a graph showing the effects of peptides 1 and 2 on IL-1β-induced NF-κB signaling in HEK-Blue cells as quantified in the QUANTI-blue assay. After pre-incubation with peptide or vehicle, HEK-Blue cells were stimulated with IL-1β for 24 h, and secreted alkaline phosphatase activity was spectroscopically detected as a reporter product from the transcription of the NF-κB gene. Data shown represents the average of 2 experiments (each with n=4 per treatment group): ****p<0.0001 compared to group treated only with IL-1β.
# HEK-Blue IL-33/IL-1β cells (InvivoGen) were respectively pretreated with peptides 1 and 2 (10^−6 M), or Kineret (1.0 mg/mL) for 30 min, followed by treatment with a constant concentration of […] (100 ng/ml), and incubation at 37° C. for 4 h. Levels of secreted alkaline phosphatase in cell culture supernatant were determined using the QUANTI-Blue assay, according to the manufacturer's instructions (InvivoGen). Alkaline phosphatase activity was assessed by measuring the optical density (OD) at 620-655 nm with an EnVision Multilabel micro plate reader (PerkinElmer, Waltham, MA). Data are representative of 3 experiments (each with n=4 per treatment group).
# timed-pregnant CD-1 mice = assay: LPS-induced preterm birth model in mice; format: in vivo, mouse; conditions: 2 mg/kg/day subcutaneous, LPS 10 μg intraperitoneal on G16.5; delivery before G18.5; LPS alone ˜80%
# Experimental: FIG. 6 is a graph showing the effects of peptides 1 and 2 on prevention of PTB. In brief, pregnant dams on day 16.5 of gestation (G16.5) were subcutaneously pretreated with peptides 1 and 2 (2 mg/kg/day subcutaneous injections) or vehicle, followed by LPS (10 μg intraperitoneal injection), and observed for delivery of pups. A dam was considered as delivering preterm if at least one pup was delivered before G18.5. n=4-5 dams per treatment group.
# Timed-pregnant CD-1 mice at 16.5 days of gestation (G16.5) were anesthetized with 2% isoflurane and received an intraperitoneal injection of lipopolysaccharide (LPS, n=4 per group, a single dose of 10 ug) (Nadeau-Vallée et al., 2015; Kakinuma et al., 1997). A dosage of 2 mg/kg/day of peptides 1 and 2 or vehicle was respectively injected subcutaneously in the neck, every 12h until delivery. On G16.5, a dose of 1 mg/kg was injected 30 min before stimulation with LPS (to allow distribution of drugs to target tissues) and 1 mg/kg was injected 12h after stimulation (n=4 each treatment). Mice delivery was assessed every hour until term (G19-G19.5). A mouse was considered as delivering prematurely if the first pup was delivered earlier than G18.5. Data was analyzed using Prism 7 (GraphPad Software, San Diego, CA, USA) with one-way ANOVA and Dunnett's test for multiple comparisons. Outliers were detected using Grubb's test. Results were treated as significant when p was <0.05 and expressed as mean+SEM.
# From the results of the in vitro screens, a subset of six (3R,4S)-β-substituted-Agl^3 peptides (e.g., 2c, 2d, 2f, 2l, 2n, 2q) were selected for examination in vivo in a CD-1 mouse model of preterm birth (PTB), and a Sprague Dawley rat model of oxygen-induced retinopathy (OIR). In the PTB model, timed-pregnant CD-1 dams were pre-treated with peptides 1 or 2, or PBS vehicle, and then injected with LPS on day 16.5 of gestation (G16.5). A bacterial cell wall component that contains PAMPs, LPS is known to reliably induce labor via pro-inflammatory pathways implicating IL-1 (Hirsch and Wang 2005). The CD-1 mice have a gestation of 19.2 days (Goupil et al. 2010). Dams that delivered at least one pup before G18.5 were considered to have given birth prematurely. In the absence of peptide, LPS alone induced premature labor in ˜80% of treated mice (FIG. 6). Peptide 1 and triazoles 2 l and 2q, all reduced the PTB rate to ˜20%.
# Sprague Dawley rat pups = assay: Oxygen-induced retinopathy (OIR) model; format: in vivo; conditions: 2 mg/kg/day intraperitoneal twice daily, 80% oxygen P5 to P10
# Text: Experiments in the oxygen-induced retinopathy rodent model were preformed according to the method described previously (Geranurimi et al. 2019), and summarized below.
# Animals. Two-day-old (P2) Sprague Dawley rat pups and their mothers were ordered from Charles River (Raleigh, SC, USA) and acclimatized for 3 days in standard conditions. All procedures and protocols involving the use of the rats were approved by the Animal Care Committee of the research center of Hopital Maisonneuve-Rosemont and are in accordance with the Statement for the Use of Animals in Ophthalmic and Vision Research approved by the Association for Research in Vision and Ophthalmology, and guidelines established by the Canadian Council on Animal Care.
# Oxygen-Induced Retinopathy in Sprague Dawley Rats. The 80% oxygen model of retinopathy was conducted as previously described (Geranurimi et al. 2019). Briefly, litters of P5 pups and their mothers were kept in a controlled 80% oxygen environment until P10. The pups were respectively injected intraperitoneally twice daily with PBS vehicle (20 μL per injection), peptide 1 or derivatives 2 (titrated to a daily dose of 2 mg/kg/day). Control litters were kept under normal air atmosphere and standard conditions. On P10, pups were euthanized by decapitation under 2% isoflurane anesthesia. Eyes were enucleated and fixed in 4% paraformaldehyde, then stored at 4° C. in phosphate-buffered saline (PBS) until further processing.
# Retinal Flatmount and Immunohistochemistry. The fixed eyes were dissected, and the obtained retinas were incubated with antibodies and mounted onto slides as previously described in (Geranurimi et al. 2019). Briefly, the cornea and lens were removed from the eyes, and the retina gently removed from the underlying sclera-choroid-retinal pigmented epithelium (RPE) complex. Retinas were treated for 1h with blocking solution [1% bovine serum albumin (BSA), 1% normal goat serum, 0.1% Triton X-100 and 0.05% Tween-20 in PBS], and then incubated overnight with lectin and Iba-1 primary antibody, followed by Alexa-594-conjugated secondary antibody for 2 h. Retinas were then mounted onto microscope slides under coverslips with anti-fade mounting medium.
# Microscopy. Retinal flatmounts were imaged using the Zeiss Axiolmager Z2 and the MosaiX feature of the AxioVision software as previously described (Geranurimi et al. 2019). Representative images after Iba-1 staining were taken using a laser scanning confocal microscope (Olympus IX81 with Fluoview FV1000 Scanhead) using the Fluoview Software at 30× magnification.
# Quantification and Data Analysis. The FIJI software was used to quantify the area of vaso-obliteration in each retina, expressed as a percentage of the area of the whole retina. The number of Iba-1-positive cells was counted using the cell counter plug-in in the FIJI software, and the average of cell counts in 4 fields per retina was calculated. Data was analyzed using Prism 7 with one-way ANOVA and the Dunnett's test for multiple comparisons. Results were treated as significant when p was less than 0.05 and expressed as mean+SEM.
# human thymocyte = conditions: in vitro (Jamieson et al. 2009); cited from earlier work
# [2] = Quiniou et al. 2008; cited from earlier work
substance,measurement,setting,value
"H-D-Arg-D-Tyr-D-Thr-D-Val-D-Glu-D-Leu-D-Ala-NH2 [compound 1, reference compound]",effect on IL-1β-induced NF-κB signaling (secreted alkaline phosphatase),[1],no effect
same,PTB rate,timed-pregnant CD-1 mice,~20%
same,retinal microglial morphology/activation (Iba-1 staining),Sprague Dawley rat pups,ramified and branched microglia
same,extent of vaso-obliteration (percentage of total retinal area),Sprague Dawley rat pups; vehicle ˜30%,~20%
same,IL-1β-induced human thymocyte cell proliferation,human thymocyte,blocked
same,in vivo effects in models of hyperthermia and inflammatory bowel disease,[2],robust in vivo effects
